Test results: PubChem BioAssay AID330 (DTP/NCI, 2004)
Where “and” joins values, the source holds several entries; their conditions need not be identical. Equal values may be shown once. Toxic doses and inconclusive results are not listed. How the source made its calls: active means survival T/C of 150% or more; inactive means T/C below 125% in these data.

Test system: P388 leukemia ip, CD2F1 mice, survival T/C
Test: NCI In Vivo Anticancer Drug Screen. Data for tumor model P388 Leukemia (intraperitoneal) in CD2F1 (CDF1) mice
Details: endpoint: median survival time, higher = longer survival
In short: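 Mice carrying the transplanted tumor received test compound or vehicle. Survival was recorded in each group, and the value is the treated-group measurement divided by that of the vehicle-treated control group.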

[1] = dose: 100.0 mg/kg/injection, schedule: Q01DX009 (ip), vehicle: saline with Tween-80
[2] = dose: 200.0 mg/kg/injection, schedule: Q01DX009 (ip), vehicle: saline with Tween-80
[3] = dose: 25.0 mg/kg/injection, schedule: Q01DX005 (ip), vehicle: Klucel (hydroxypropylcellulose) (HPC)
[4] = dose: 25.0 mg/kg/injection, schedule: Q01DX009 (ip), vehicle: saline with Tween-80
[5] = dose: 50.0 mg/kg/injection, schedule: Q01DX009 (ip), vehicle: saline with Tween-80
[6] = dose: 60.0 mg/kg/injection, schedule: Q01DX005 (ip), vehicle: saline with Tween-80
[7] = dose: 120.0 mg/kg/injection, schedule: Q01DX005 (ip), vehicle: saline with Tween-80
[8] = dose: 240.0 mg/kg/injection, schedule: Q01DX005 (ip), vehicle: saline with Tween-80
[9] = dose: 50.0 mg/kg/injection, schedule: Q01DX005 (ip), vehicle: Klucel (hydroxypropylcellulose) (HPC)
[10] = dose: 100.0 mg/kg/injection, schedule: Q01DX005 (ip), vehicle: Klucel (hydroxypropylcellulose) (HPC)
[11] = dose: 200.0 mg/kg/injection, schedule: Q01DX005 (ip), vehicle: Klucel (hydroxypropylcellulose) (HPC)
[12] = dose: 50.0 mg/kg/injection, schedule: Q01DX009 (ip), vehicle: saline
[13] = dose: 100.0 mg/kg/injection, schedule: Q01DX009 (ip), vehicle: saline
[14] = dose: 200.0 mg/kg/injection, schedule: Q01DX009 (ip), vehicle: saline
[15] = dose: 50.0 mg/kg/injection, schedule: Q04DX003 (ip), vehicle: Klucel (hydroxypropylcellulose) (HPC)
[16] = dose: 100.0 mg/kg/injection, schedule: Q04DX003 (ip), vehicle: Klucel (hydroxypropylcellulose) (HPC)
[17] = dose: 200.0 mg/kg/injection, schedule: Q04DX003 (ip), vehicle: Klucel (hydroxypropylcellulose) (HPC)

Measured: T/C

CN(C)c1ccc(C(=C2C=CC(=[N+](C)C)C=C2)c2ccccc2Cl)cc1
inactive: dose: 1.56 mg/kg/injection, schedule: Q01DX005 (ip), vehicle: saline with Tween-80 117 % of control | dose: 3.13 mg/kg/injection, schedule: Q01DX005 (ip), vehicle: saline with Tween-80 117 % of control and 121 % of control | dose: 6.25 mg/kg/injection, schedule: Q01DX005 (ip), vehicle: saline with Tween-80 118 % of control (2×) and 121 % of control | dose: 12.5 mg/kg/injection, schedule: Q01DX005 (ip), vehicle: saline with Tween-80 112 % of control and 88 % of control

O=C1/C(=C/c2ccccc2)Cc2ccccc21
inactive: [1] 100 % of control | [2] 100 % of control | dose: 400.0 mg/kg/injection, schedule: Q01DX009 (ip), vehicle: saline with Tween-80 95 % of control

Nc1cc2c3c(cccc3c1O)CC2
inactive: dose: 6.25 mg/kg/injection, schedule: Q01DX005 (ip), vehicle: Klucel (hydroxypropylcellulose) (HPC) 99 % of control | dose: 12.5 mg/kg/injection, schedule: Q01DX005 (ip), vehicle: Klucel (hydroxypropylcellulose) (HPC) 102 % of control | [3] 102 % of control

Cc1cc(C(C)(CC(C)C)c2ccc(O)c(C)c2)ccc1O
inactive: [4] 116 % of control | [5] 98 % of control

CC1CC(C)(C)N=C(C(C)C)O1 (centres undefined)
inactive: dose: 25.0 mg/kg/injection, schedule: Q04DX003 (ip), vehicle: saline with Tween-80 109 % of control | dose: 50.0 mg/kg/injection, schedule: Q04DX003 (ip), vehicle: saline with Tween-80 100 % of control | dose: 100.0 mg/kg/injection, schedule: Q04DX003 (ip), vehicle: saline with Tween-80 100 % of control

COc1ccc(C(O)C2CC(=O)NN=C2C)cc1OC (centres undefined)
inactive: [6] 100 % of control | [7] 100 % of control | [8] 99 % of control

Cc1cc2cc3c(=O)n(C)c(=O)nc-3n(CC(O)C(O)C(O)CO)c2cc1C (centres undefined)
inactive: dose: 15.0 mg/kg/injection, schedule: Q01DX009 (ip), vehicle: saline with Tween-80 98 % of control | dose: 30.0 mg/kg/injection, schedule: Q01DX009 (ip), vehicle: saline with Tween-80 98 % of control | dose: 60.0 mg/kg/injection, schedule: Q01DX009 (ip), vehicle: saline with Tween-80 113 % of control

CN(/N=C\c1ccccc1)C(N)=S
inactive: [9] 105 % of control | [10] 111 % of control | [11] 101 % of control

NC(=O)CCCCO
inactive: dose: 100.0 mg/kg/injection, schedule: Q04DX003 (ip), vehicle: saline 102 % of control | dose: 200.0 mg/kg/injection, schedule: Q04DX003 (ip), vehicle: saline 102 % of control | dose: 400.0 mg/kg/injection, schedule: Q04DX003 (ip), vehicle: saline 109 % of control

Nc1cccnc1N
inactive: dose: 2.5 mg/kg/injection, schedule: Q01DX009 (ip), vehicle: saline 98 % of control | dose: 3.12 mg/kg/injection, schedule: Q01DX009 (ip), vehicle: saline 106 % of control | dose: 5.0 mg/kg/injection, schedule: Q01DX009 (ip), vehicle: saline 98 % of control | dose: 6.25 mg/kg/injection, schedule: Q01DX009 (ip), vehicle: saline 106 % of control | dose: 10.0 mg/kg/injection, schedule: Q01DX009 (ip), vehicle: saline 105 % of control | dose: 12.5 mg/kg/injection, schedule: Q01DX009 (ip), vehicle: saline 92 % of control and 93 % of control | dose: 20.0 mg/kg/injection, schedule: Q01DX009 (ip), vehicle: saline 101 % of control

CCc1c(C(=O)OC)c(C(=O)OC)c(-c2ccccc2)n1CCn1c(CC)c(C(=O)OC)c(C(=O)OC)c1-c1ccccc1
inactive: dose: 60.0 mg/kg/injection, schedule: Q01DX005 (ip), vehicle: Klucel (hydroxypropylcellulose) (HPC) 96 % of control | dose: 120.0 mg/kg/injection, schedule: Q01DX005 (ip), vehicle: Klucel (hydroxypropylcellulose) (HPC) 91 % of control | dose: 240.0 mg/kg/injection, schedule: Q01DX005 (ip), vehicle: Klucel (hydroxypropylcellulose) (HPC) 93 % of control

N#CC(Br)(C#N)Cc1ccccc1
inactive: dose: 25.0 mg/kg/injection, schedule: Q01DX009 (ip), vehicle: Klucel (hydroxypropylcellulose) (HPC) 87 % of control | dose: 50.0 mg/kg/injection, schedule: Q01DX009 (ip), vehicle: Klucel (hydroxypropylcellulose) (HPC) 100 % of control

Nc1nccc2[nH]ccc12
inactive: dose: 12.5 mg/kg/injection, schedule: Q01DX001 (ip), vehicle: saline 103 % of control | dose: 25.0 mg/kg/injection, schedule: Q01DX001 (ip), vehicle: saline 102 % of control | dose: 50.0 mg/kg/injection, schedule: Q01DX001 (ip), vehicle: saline 112 % of control

CN(C)c1ccc(/C=C/C=N/NC(=S)NC23CC4CC(CC(C4)C2)C3)cc1
inactive: [6] 89 % of control | [7] 86 % of control

COC1(OC)/C(=C/Cl)CC2(C)C(=O)NC(=O)C21Cl (centres undefined)
inactive: [3] 106 % of control | [9] 105 % of control | [10] 105 % of control | [11] 106 % of control

CCOC(=O)c1cn(C)c2c1C(=O)C(C(=O)OCC)CCN2C(=O)OCC (centres undefined)
inactive: [5] 99 % of control | [1] 105 % of control | [2] 107 % of control

CCS(=O)(=O)c1ncnc2nc[nH]c12
inactive: [9] 100 % of control | [10] 102 % of control | [11] 100 % of control

CCCCCCCCCCCCCCCCOc1ccc(C(=O)O)cc1S(=O)(=O)N/N=c1/sc2cc(Cl)cc(Cl)c2n1C
inactive: [12] 88 % of control | [13] 93 % of control | [14] 86 % of control

CNC(=O)NNc1ccccc1
inactive: dose: 25.0 mg/kg/injection, schedule: Q04DX003 (ip), vehicle: Klucel (hydroxypropylcellulose) (HPC) 100 % of control | [15] 102 % of control | [16] 97 % of control | [17] 102 % of control | dose: 400.0 mg/kg/injection, schedule: Q04DX003 (ip), vehicle: Klucel (hydroxypropylcellulose) (HPC) 103 % of control

ClCSc1ccccc1C1=NCCCN1
inactive: dose: 0.78 mg/kg/injection, schedule: Q01DX005 (ip), vehicle: saline 107 % of control | dose: 1.56 mg/kg/injection, schedule: Q01DX005 (ip), vehicle: saline 107 % of control | dose: 3.12 mg/kg/injection, schedule: Q01DX005 (ip), vehicle: saline 102 % of control

FC(F)(F)C1=C(C(F)(F)F)SP(Cl)(c2ccccc2)(c2ccccc2)S1
inactive: dose: 50.0 mg/kg/injection, schedule: Q04DX003 (ip), vehicle: other 107 % of control | dose: 100.0 mg/kg/injection, schedule: Q04DX003 (ip), vehicle: other 100 % of control | dose: 200.0 mg/kg/injection, schedule: Q04DX003 (ip), vehicle: other 93 % of control

CC(=O)OC1/C=C\CC/C=C\C1 (centres undefined)
inactive: [6] 99 % of control | [7] 102 % of control | [8] 103 % of control

OCCN(CCO)c1ccc2ccc(N(CCO)CCO)nc2n1
inactive: [15] 103 % of control | [16] 103 % of control | [17] 100 % of control

CCOC(=O)Nc1cc2c(c(N)n1)N=C(c1ccccc1)CS2
inactive: dose: 75.0 mg/kg/injection, schedule: Q01DX005 (ip), vehicle: Klucel (hydroxypropylcellulose) (HPC) 100 % of control | dose: 150.0 mg/kg/injection, schedule: Q01DX005 (ip), vehicle: Klucel (hydroxypropylcellulose) (HPC) 95 % of control | dose: 300.0 mg/kg/injection, schedule: Q01DX005 (ip), vehicle: Klucel (hydroxypropylcellulose) (HPC) 97 % of control

C1=CC2C=CC1C2c1ccccc1 (centres undefined)
inactive: [12] 108 % of control and 86 % of control | [13] 105 % of control and 111 % of control | [14] 116 % of control and 98 % of control

CC1CCC(C(C)C)C(OC(=O)c2cc[n+](C)cc2)C1 (centres undefined)
inactive: [9] 107 % of control | [10] 98 % of control

CCOC(CN=Cc1cc(C)c2oc3ccccc3c2c1C)OCC
inactive: [5] 100 % of control | [1] 100 % of control | [2] 95 % of control

Cn1/c2cc/c1=C(\c1ccccc1)c1ccc([n-]1)/C(c1ccccc1)=c1/cc/c([nH]1)=C(\c1ccccc1)c1ccc([n-]1)/C=2c1ccccc1.O.O=S(=O)(O)C(F)(F)F.[Cu+2]
inactive: dose: 12.5 mg/kg/injection, schedule: Q01DX009 (ip), vehicle: saline with Tween-80 102 % of control | [4] 91 % of control | dose: 50.0 mg/kg/injection, schedule: Q01DX009 (ip), vehicle: other 88 % of control | [5] 91 % of control
